From patent US5527782A, “5-halo-2,3'-O-cyclocytidines” (ACIC (Canada) Inc., priority 1990, dated 1996)
Counter-ions that a name gives are not always drawn.

Legend:
A375 melanoma cells = assay: In vivo antitumor activity, A375 melanoma engrafted s.c. in SCID mice; settings: for Growth Delay: calculated from tumor volume curve; for Tumor Weight (% Inhibition): tumor weight at day 20
Description: (§1) In vivo studies were conducted comparing the effectiveness of 5-bromo-2,3'-O-cyclocytidine hydrochloride (5-Br-cycloC) with one or more of 2,3'-O-cyclocytidine hydrochloride (cycloC), 1 -β-D-arabinofuranosylcytosine (Ara-C), Adfiamycin (ADR) and Dacarbazine (DTIC).
(§2) More specifically, the antitumor activity of these compounds were evaluated in two human tumor cell lines engrafted in severe combined immunodeficient (SCID) mice. The particular cell lines used in this Example were A549 (described above in Example 5) and melanoma A375 cells obtained from The American Type Culture Collection (ATCC) (hereinafter referred to as A375).

A549 = assay: In vivo antitumor activity, A549 engrafted s.c. in SCID mice; settings: for Growth Delay: calculated from tumor volume curve; for Tumor Weight (% Inhibition): tumor weight at day 20
Description: as §1, §2

[1] = tested on: human alveolar tumour cell line A549; assay: [methyl-^3 H]thymidine uptake / cytotoxicity in human alveolar tumour cell line A549; format: cell-based; settings: for IC50: Homo sapiens, 96 h, A549, four days incubation, then [methyl-^3 H]thymidine four hours, read-out: IC50 (drug concentrations producing 50% cytotoxicity); for cytotoxic effect on A549 cells compared to 2,3'-O-cyclocytidine hydrochloride: at relatively low concentrations
From the text: In this Example, there is described an in vitro comparison between 2,3'-O-cyclocytidine hydrochloride, 5-bromo-2,3'-O-cyclocytidine hydrochloride, and 5-iodo-2,3'-O-cyclocytidine hydrochloride. The specific in vitro test involved assessing the toxicity of the compounds in a particular cell line by conducting [methyl-^3 H]thymidine uptake experiments.
The particular cell line used in the Example was human alveolar tumour cell line A549 (hereinafter referred to as A549) obtained from The American Type Culture Collection (ATCC) as CCL 185 (lung carcinoma, human).
Cultures were inoculated at 1×10^5 cells/60 mm dish, incubated for four days in the presence of various concentrations (see FIGURE) of 2,3'-O-cyclocytidine hydrochloride (.largecircle.), 5-bromo-2,3'-O-cyclocytidine hydrochloride and 5-iodo-2,3'-O-cyclocytidine hydrochloride. Thereafter, the cells were incubated with a medium supplemented with [methyl-^3 H]thymidine (82 Cl/mmol; 5 μCl/ml) for four hours and lysed, and the amount of radioactivity incorporated into genomic DNA was measured. The IC50 values (drug concentrations producing 50% cytotoxicity) for each compound illustrated in the FIGURE are reported in Table 10. As will be apparent from […]

[2] = MTD in non-tumor bearing SCID mice; settings: mouse, in vivo, ip, i.p. daily×7
[3] = Experiment 1, 60 mg/kg i.p. daily × 7
[4] = Experiment 2, 60 mg/kg i.p. daily × 7
[5] = Experiment 2, 60 mg/kg i.p. daily ×
[6] = Experiment 3, 120 mg/kg i.p. every other day × 7
[7] = Experiment 4, 120 mg/kg i.p. every other day × 7
[8] = Experiment 1, 200 mg/kg i.p. daily × 7
[9] = Experiment 2, 250 mg/kg i.p. daily × 7
[10] = Experiment 2, 300 mg/kg i.p. × 1
[11] = Experiment 3, 250 mg/kg i.p. daily × 7
[12] = Experiment 3, 250 mg/kg i.p. every other day × 7
[13] = Experiment 4, 250 mg/kg i.p. every other day × 7
[14] = Experiment 1, 250 mg/kg i.p. daily × 7
[15] = Experiment 1, 250 mg/kg i.p. every other day × 7
[16] = Experiment 1, 1000 mg/kg i.p. daily × 7

Nc1ccn([C@@H]2O[C@H](CO)[C@@H](O)[C@@H]2O)c(=O)n1 [Ara-C, 1 -β-D-arabinofuranosylcytosine]
Survival Rate (%) (A375 melanoma cells; [3]): 100% | Growth Delay (A375 melanoma cells; [3]): 10 days | Tumor Weight (% Inhibition) (A375 melanoma cells; [3]): 45% | Survival Rate (%) (A375 melanoma cells; [4]): 100% | Growth Delay (A375 melanoma cells; [4]): 11 days | Tumor Weight (% Inhibition) (A375 melanoma cells; [4]): 39% | survival rate (A549; A549, Table 12): ≤ 33.3% | Survival Rate (%) (A549; [3]): 33.3% | Growth Delay (A549; [3]): 7 days | Tumor Weight (% Inhibition) (A549; [3]): 38% | Survival Rate (%) (A549; [5]): 33.3% | Growth Delay (A549; [5]): 11 days | Tumor Weight (% Inhibition) (A549; [5]): 47% | weight loss (A549; in vivo): weight loss

CN(C)/N=N/c1[nH]cnc1C(N)=O [DTIC, Dacarbazine, reference compound]
Growth Delay (A375 melanoma cells; [6]): 12 days | Tumor Weight (% Inhibition) (A375 melanoma cells; [6]): 53% | Growth Delay (A375 melanoma cells; [7]): 13 days | Tumor Weight (% Inhibition) (A375 melanoma cells; [7]): 59%

N=c1nc2n(cc1Br)[C@@H]1O[C@H](CO)[C@H](O2)[C@H]1O [5-bromo-2,3'-O-cyclocytidine hydrochloride]
IC50 [1]: 40 µM | cytotoxic effect on A549 cells compared to 2,3'-O-cyclocytidine hydrochloride [1]: significantly superior cytotoxic effect | Growth Delay (A375 melanoma cells; [8]): 10 days | Tumor Weight (% Inhibition) (A375 melanoma cells; [8]): 26% | Growth Delay (A375 melanoma cells; [9]): 10 days | Tumor Weight (% Inhibition) (A375 melanoma cells; [9]): 43% | Growth Delay (A375 melanoma cells; [10]): 11 days | Tumor Weight (% Inhibition) (A375 melanoma cells; [10]): 45% | Growth Delay (A375 melanoma cells; [11]): 9 days | Tumor Weight (% Inhibition) (A375 melanoma cells; [11]): 38% | Growth Delay (A375 melanoma cells; [12]): 12 days | Tumor Weight (% Inhibition) (A375 melanoma cells; [12]): 43% | Growth Delay (A375 melanoma cells; [13]): 11 days | Tumor Weight (% Inhibition) (A375 melanoma cells; [13]): 48% | weight loss during therapy (A375 melanoma cells; in vivo): no weight loss (or in two instances an actual weight gain) | Survival Rate (%) (A375 melanoma cells; in vivo, ip, 200 mg/kg): 100% | Weight Loss (% Decrease) (A375 melanoma cells; in vivo, ip, 200 mg/kg): 0% | Survival Rate (%) (A375 melanoma cells; in vivo, ip, 300 mg/kg): 33.3% | Weight Loss (% Decrease) (A375 melanoma cells; in vivo, ip, 300 mg/kg): 0% | effectiveness in effecting tumor growth delay (A375 melanoma cells; treatment of A375, Table 11): as effective in effecting tumor growth delay as 1-β-D-arabinofuranosylcytosine and dacarbazine, and much more effective than 2,3'-O-cyclocytidine hydrochloride | decrease of tumor growth (A549; 250 mg/kg daily×7, over a 20 day period): significantly decreased tumor growth | Growth Delay (A549; [14]): 10 days | Tumor Weight (% Inhibition) (A549; [14]): 43% | Growth Delay (A549; [15]): 6 days | Tumor Weight (% Inhibition) (A549; [15]): 12% | survival rate (A549; in vivo): 100% | weight loss (A549; in vivo): no weight loss (or an actual weight in one stance) | Survival Rate (%) (A549; in vivo, ip, 250 mg/kg): 100% | MTD [2]: 250 mg/kg

N=c1nc2n(cc1I)[C@@H]1O[C@H](CO)[C@H](O2)[C@H]1O [5-Iodo-2,3'-O-cyclocytidine hydrochloride]
IC50 [1]: 10 µM | cytotoxic effect on A549 cells compared to 2,3'-O-cyclocytidine hydrochloride [1]: significantly superior cytotoxic effect

N=c1ccn2c(n1)O[C@@H]1[C@@H](O)[C@H]2O[C@@H]1CO [2,3'-O-Cyclocytidine hydrochloride, 2,3'-O-cyclocytidine hydrochloride, reference compound]
IC50 [1]: 50 µM | Growth Delay (A375 melanoma cells; [16]): 2 days | Tumor Weight (% Inhibition) (A375 melanoma cells; [16]): +6% | Survival Rate (%) (A375 melanoma cells; in vivo, ip, 1000 mg/kg): 100% | Weight Loss (% Decrease) (A375 melanoma cells; in vivo, ip, 1000 mg/kg): 0%

COc1cccc2c1C(=O)c1c(O)c3c(c(O)c1C2=O)C[C@@](O)(C(=O)CO)C[C@@H]3O[C@H]1C[C@H](N)[C@H](O)[C@H](C)O1 [ADR, Adfiamycin]
survival rate (A549; A549, Table 12): ≤ 33.3% | Survival Rate (%) (A549; Experiment 1, 7 mg/kg i.p. × 1): 16.7% | Growth Delay (A549; Experiment 1, 7 mg/kg i.p. × 1): 5 days | Tumor Weight (% Inhibition) (A549; Experiment 1, 7 mg/kg i.p. × 1): 6% | Survival Rate (%) (A549; Experiment 2, 5 mg/kg i.p. × 1): 16.7% | Growth Delay (A549; Experiment 2, 5 mg/kg i.p. × 1): 6 days | Tumor Weight (% Inhibition) (A549; Experiment 2, 5 mg/kg i.p. × 1): 24% | weight loss (A549; in vivo): weight loss | Weight Loss (% Decrease) (A549; in vivo, ip, 5 mg/kg): 32% | Weight Loss (% Decrease) (A549; in vivo, ip, 7 mg/kg): 16%
